According to patent US9994528B2, “Certain amino-pyridines and amino-triazines, compositions thereof, and methods for their use” (Cytokinetics, Inc., priority 2010, dated 2018):

The molecules below were run on rabbit skeletal myofibrils (approximately 90% fast fibers) (assay: Activation of fast skeletal myofibrils (PUMA coupled-enzyme ATPase assay)). Conditions: AC1.4 = concentration at which the compound increased the enzymatic activity by 40%; myofibril suspension at calcium level pCa25; PM12 buffer pH 6.8.
Type: biochemical
Procedure: Preparation of fast skeletal myofibrils. Rabbit skeletal myofibrils were prepared based upon the method of Herrmann et al. (Biochem. 32(28):7255-7263(1993). Myofibrils were prepared from rabbit psoas muscle purchased from Pel-Freez Biologicals (Arkansas) within 2 days of ordering, stored on ice. Minced muscle was homogenized in 10 volumes of ice-cold “standard” buffer (50 mM Tris, pH 7.4, 0.1 M potassium acetate, 5 mM KCl, 2 mM DTT, 0.2 mM PMSF, 10 μM leupeptin, 5 μM pepstatin, and 0.5 mM sodium azide) containing 5 mM EDTA and 0.5% Triton X-100 using an Omni-Macro homogenizer. Myofibrils were recovered by low speed centrifugation (3000 rpm for 10 minutes) and washed 2 times in the Triton X-100 containing buffer to ensure removal of cellular membrane. Following the Triton washes, myofibrils were washed 3 times in “standard” buffer containing 2 mM magnesium acetate. A final wash in assay buffer (12 mM PIPES, pH 6.8, 60 mM KCl, 1 mM DTT) was performed and brought to 10% sucrose for flash freezing in liquid nitrogen and storage at −80° C.
Activation of Fast Skeletal Myofibrils. Fast fiber activators were identified by measuring the enzymatic activity of muscle myofibril preparations using the proprietary PUMA™ (see, e.g., U.S. Pat. Nos. 6,410,254, 6,743,599, 7,202,051, and 7,378,254) assay system. Myofibril preparations consisted of rabbit skeletal muscle (approximately 90% fast fibers) that had been mechanically homogenized and washed with a detergent (triton X-100) to remove cellular membranes. This preparation retained all of the sarcomeric components in a native conformation and the enzymatic activity was still regulated by calcium. Compounds were tested using a myofibril suspension and a level of calcium sufficient to increase enzymatic activity of the myofibrils to 25% of their maximal rate (termed pCa25). Enzymatic activity was tracked via a pyruvate kinase and lactate dehydrogenase-coupled enzyme system. This assay regenerates myosin-produced ADP into ATP by oxidizing NADH, producing an absorbance change at 340 nm. The buffering system was 12 mM Pipes, 2 mM MgCl2, 1 mM DTT at pH 6.8 (PM12 buffer).
Using procedures similar to those described herein, utilizing reagents and intermediates commercially available (e.g., Sigma-Aldrich,) or readily synthesized by one of skill in the art, the compounds in Table 2 were synthesized, characterized and tested. AC1.4 values were determined according to the procedure described in Example 25, and the reported median AC1.4 values are as follows: A=<1 uM; B=1-10 uM; C=10-20 uM; D=>20 uM.

| Molecule | Mean AC1.4 |
| --- | --- |
| 2-{2-[3-({[3-fluoro-1-(3-fluoro(2- pyridyl))cyclobutyl]methyl}amino)-1,2,4- triazin-6-yl]-1,3-thiazoI-5-yl}acetamide | C (C=10-20 uM) |
| CC(C)(Nc1ncc(-n2cc(C(N)=O)cn2)nn1)c1ncccc1Cl [1-(3-{[1-(3-chloro(2-pyridyl))-isopropyl]amino}-1,2,4-triazin-6-yl)pyrazole-4-carboxamide] | D (D=>20 uM) |
| CC(C)(Nc1ncc(-n2cc(C(N)=O)cn2)nn1)c1ncccc1F [1-(3-{[1-(3-fluoro(2-pyridyl))-isopropyl]amino}-1,2,4-triazin-6-yl)pyrazole-4-carboxamide] | D (D=>20 uM) |
| CC(C)(CNc1ncc(-n2cc(C(N)=O)cn2)nn1)c1ccc(F)cc1 [1-(3-{[2-(4-fluorophenyl)-2-methylpropyl]amino}-1,2,4-triazin-6-yl)pyrazole-4-carboxamide] | B (B=1-10 uM) |
| NC(=O)c1cnn(-c2cnc(NC3(c4ncccc4F)CCC3)nn2)c1 [1-(3-{[(3-fluoro-2-pyridyl)cyclobutyl]amino}-1,2,4-triazin-6-yl)pyrazole-4-carboxamide] | D (D=>20 uM) |
| CC(C)(CNc1ccc(C(O)CO)cn1)c1ccc(F)cc1 (stereo not drawn) [1-(6-{[2-(4-fluorophenyl)-2-methylpropyl]amino}-3-pyridyl)ethane-1,2-diol] | D (D=>20 uM) |
| CC(C)(Nc1ncc(-n2cc(C(N)=O)cn2)nn1)c1cccc(OC(F)F)n1 [1-[3-({1-[6-(difluoromethoxy)(2-pyridyl)]-isopropyl}amino)-1,2,4-triazin-6-yl]pyrazole-4-carboxamide] | B (B=1-10 uM) |
| NC(=O)c1cnn(-c2cnc(NCC3(c4ncccc4F)CCC3)nn2)c1 [1-[3-({[(3-fluoro-2-pyridyl)cyclobutyl]methyl}amino)-1,2,4-triazin-6-yl]pyrazole-4-carboxamide] | B (B=1-10 uM) |
| CC(C)(Nc1ncc(-c2ncc(CC(N)=O)s2)nn1)c1ncccc1F [2-[2-(3-{[1-(3-fluoro(2-pyridyl))-isopropyl]amino}-1,2,4-triazin-6-yl)-1,3-thiazol-5-yl]acetamide] | D (D=>20 uM) |
| CC(C)(Nc1ncc(-c2cccc(CC(N)=O)c2)nn1)c1ncccc1F [2-[3-(3-{[1-(3-fluoro(2-pyridyl))-isopropyl]amino}-1,2,4-triazin-6-yl)phenyl]acetamide] | D (D=>20 uM) |
| CC(C)(Nc1ncc(-c2ncc(C(N)=O)s2)nn1)c1cccc(OC(F)F)n1 [2-[3-({1-[6-(difluoromethoxy)(2-pyridyl)]-isopropyl}amino)-1,2,4-triazin-6-yl]-1,3-thiazole-5-carboxamide] | B (B=1-10 uM) |
| CC(C)(Nc1ncc(-c2cc(CNC(=O)CN)ccc2F)nn1)c1ncccc1F [2-amino-N-{[4-fluoro-3-(3-{[1-(3-fluoro(2-pyridyl))-isopropyl]amino}(1,2,4-triazin-6-yl))phenyl]methyl}acetamide] | B (B=1-10 uM) |
| CC(C)(Nc1ncc(-c2ccc(F)c(C(N)=O)c2)nn1)c1ncccc1F [2-fluoro-5-(3-{[1-(3-fluoro(2-pyridyl))-isopropyl]amino}(1,2,4-triazin-6-yl))benzamide] | D (D=>20 uM) |
| CC(C)(Nc1ncc(-c2ccc(F)c(C(=O)O)c2)nn1)c1ncccc1F [2-fluoro-5-(3-{[1-(3-fluoro(2-pyridyl))-isopropyl]amino}(1,2,4-triazin-6-yl))benzoic acid] | D (D=>20 uM) |
| N#Cc1cc(-c2cnc(NCC3(c4ncccc4F)CCC3)nn2)ccc1F [2-fluoro-5-[3-({[(3-fluoro(2-pyridyl))cyclobutyl]methyl}amino)(1,2,4-triazin-6-yl)]benzenecarbonitrile] | C (C=10-20 uM) |
| NC(=O)Cc1cnc(-c2cnc(NCC3(c4ncccc4F)CCC3)nn2)s1 [2-{2-[3-({[(3-fluoro-2-pyridyl)cyclobutyl]methyl}amino)-1,2,4-triazin-6-yl]-1,3-thiazol-5-yl}acetamide] | C (C=10-20 uM) |
| CC(C)(CNc1ccc2cc(C(N)=O)ccc2n1)c1ccc(F)cc1 [2-{[2-(4-fluorophenyl)-2-methylpropyl]amino}quinoline-6-carboxamide] | B (B=1-10 uM) |

| Molecule | Mean AC1.4 |
| --- | --- |
| CC(C)(Nc1ncc(-c2cc(C(N)=O)ccc2F)nn1)c1ncccc1Cl [3-(3-{[1-(3-chloro(2-pyridyl))-isopropyl]amino}(1,2,4-triazin-6-yl))-4-fluorobenzamide] | B (B=1-10 uM) |
| CC(C)(Nc1ncc(-c2cccc(C(N)=O)c2)nn1)c1ncccc1Cl [3-(3-{[1-(3-chloro(2-pyridyl))-isopropyl]amino}-1,2,4-triazin-6-yl)benzamide] | B (B=1-10 uM) |
| CC(C)(Nc1ncc(-c2cccc(C(N)=O)c2)nn1)c1ncccc1F [3-(3-{[1-(3-fluoro(2-pyridyl))-isopropyl]amino}-1,2,4-triazin-6-yl)benzamide] | B (B=1-10 uM) |
| CC(C)(CNc1ncc(-c2cc(C(N)=O)ccc2F)nn1)c1ncccc1Cl [3-(3-{[2-(3-chloro(2-pyridyl))-2-methylpropyl]amino}(1,2,4-triazin-6-yl))-4-fluorobenzamide] | B (B=1-10 uM) |
| CC(C)(CNc1ncc(-c2cc(C(=O)O)ccc2F)nn1)c1ncccc1Cl [3-(3-{[2-(3-chloro(2-pyridyl))-2-methylpropyl]amino}(1,2,4-triazin-6-yl))-4-fluorobenzoic acid] | B (B=1-10 uM) |
| CC(C)(CNc1ncc(-c2cccc(C(N)=O)c2)nn1)c1ccc(F)cc1 [3-(3-{[2-(4-fluorophenyl)-2-methylpropyl]amino}-1,2,4-triazin-6-yl)benzamide] | B (B=1-10 uM) |
| NC(=O)c1cccc(-c2cnc(NCC3(c4ccccn4)CCC3)nn2)c1 [3-(3-{[(2-pyridylcyclobutyl)methyl]amino}-1,2,4-triazin-6-yl)benzamide] | B (B=1-10 uM) |
| N#Cc1cccc(-c2cnc(NCC3(c4ccccn4)CCC3)nn2)c1 [3-(3-{[(2-pyridylcyclobutyl)methyl]amino}-1,2,4-triazin-6-yl)benzenecarbonitrile] | B (B=1-10 uM) |
| CC(C)(CNc1cnc(-c2cccc(C(N)=O)c2)nn1)c1ccc(F)cc1 [3-(6-{[2-(4-fluorophenyl)-2-methylpropyl]amino}-1,2,4-triazin-3-yl)benzamide] | B (B=1-10 uM) |
| CC(C)(CNc1ccc(-c2cccc(C(N)=O)c2)cn1)c1ccc(F)cc1 [3-(6-{[2-(4-fluorophenyl)-2-methylpropyl]amino}-3-pyridyl)benzamide] | A (A=<1 uM) |
| CC(C)(CNc1ccc(CC(O)CO)cn1)c1ccc(F)cc1 (stereo not drawn) [3-(6-{[2-(4-fluorophenyl)-2-methylpropyl]amino}-3-pyridyl)propane-1,2-diol] | D (D=>20 uM) |
| NC(=O)c1cccc(-c2ccc(NCCc3ccc(F)cc3)nc2)c1 [3-(6-{[2-(4-fluorophenyl)ethyl]amino}-3-pyridyl)benzamide] | D (D=>20 uM) |
| C[C@@H](CNc1ccc(-c2cccc(C(N)=O)c2)cn1)c1ccc(F)cc1 [3-(6-{[(2R)-2-(4-fluorophenyl)propyl]amino}-3-pyridyl)benzamide] | B (B=1-10 uM) |
| C[C@H](CNc1ccc(-c2cccc(C(N)=O)c2)cn1)c1ccc(F)cc1 [3-(6-{[(2S)-2-(4-fluorophenyl)propyl]amino}-3-pyridyl)benzamide] | B (B=1-10 uM) |
| CC(C)(Nc1ncc(-c2cc(C(N)=O)ccc2F)nn1)c1ncccc1C(F)F [3-[3-({1-[3-(difluoromethyl)(2-pyridyl)]-isopropyl}amino)(1,2,4-triazin-6-yl)]-4-fluorobenzamide] | C (C=10-20 uM) |
| CC(C)(Nc1ncc(-c2cc(C#N)ccc2F)nn1)c1ncccc1C(F)F [3-[3-({1-[3-(difluoromethyl)(2-pyridyl)]-isopropyl}amino)(1,2,4-triazin-6-yl)]-4-fluorobenzenecarbonitrile] | D (D=>20 uM) |
